Results: patent publication US12358949B2, “Defensin fragments for use in therapy or prophylaxis” (priority 2019, dated 2025)
Where two headings read alike, the source gives them in different places. Where a SMILES comes first, the peptide text is derived from it. Bridges are numbered along the chain shown (N, C = ends).

Experiments:
[1] = Incubation of reduced peptide with human duodenal fluid, LC/MS; type: in vitro ADME; settings: after reduction with 2 mM TCEP; duodenal fluid 30 minutes at 37° C.
Experimental: 2.5 μg of HD-5 or HD-6 were incubated in 50 mM NH4HCO3 buffer (pH 8.0) (Fluka) with 2 mM tris(2-carboxyethyl) phosphine for 15 minutes at 37° C. Afterwards human duodenal fluid was added and incubated for additional 30 minutes at 37° C. At last, formic acid and acetonitrile was added in a final concentration of 0.5% and 10%, respectively, and analyzed the samples by mass spectrometry. Mass spectrometry was performed as a LC/MS system using an Agilent 1200 series HPLC with an Agilent Advanced Bio Peptide Map (2.1×150 mm, 2.7 μm) column with a flow of 0.4 ml/min at 55° C. column temperature and a 6540 UHD Q-TOF LC/MS system (Agilent) for mass analysis. The samples were separated by a gradient of acetonitrile in 0.1% formic acid. The gradient started at 2% acetonitrile for 4 minutes and then increased during 35 minutes to 45%. Mass spectrometric analyses were performed in single MS mode from 100 to 3400 m/z with positive ion polarity and were analyzed by Agilent MassHunter Quantitative Analysis B 06.00 software.

P. aeruginosa ATCC 27853 = type: cell-based
Experimental: (§1) The tested bacteria were incubated overnight in 1×TSB broth, centrifuged and washed with 10 mM sodium phosphate buffer containing 1% (w/v) TSB broth. 5×10^5 cfu/ml bacteria were mixed with different peptide concentrations in 10 mM sodium phosphate buffer with 1% (w/v) TSB (final volume 100 μl) and incubated for 2 hours at 37° C. Afterwards we added 100 μl 2×TSB broth and we measured the optical density at 600 nm (Spark 10M, Tecan, Austria). Bacterial growth was monitored for 12 hours, growing at 37° C. with shaking during the measurements each 30 minutes, except for Akkermansia muciniphila which were incubated at 37° C. in an anaerobic jar and growth was measured after 72 hours.

A. baumannii 4-MRGN = type: cell-based
Experimental: as §1

commensal bacteria = assay: Radial diffusion assay, HD-5 fragments; type: cell-based; settings: 4 μg fragment, 2 μg full-length peptide; commensal bacteria (FIG. 3)
Experimental: In the RDA 2 μg of the full length and 4 μg of each fragment were used. An inhibition zone greater than 5 mm was determined as high activity, between 2.5 and 5 mm as low activity and 2.5 mm were the diameter of the punched well and therefore no activity.
(§2) Antimicrobial activity of all peptides was tested with a modified radial diffusion assay from Lehrer et al^12 Shortly described, log-phase bacteria grew (anaerobic bacteria with AnaeroGen, Oxoid in anaerobic jars) in liquid tryptic soy broth (TSB) (Becton Dickinson). After several wash steps in 10 mM sodium phosphate buffer pH 7.4, 4×10^6 cfu/ml was used per assay. To measure the antibacterial effect of the identified peptide fragments, the bacteria were incubated in 10 mM sodium phosphate (pH 7.4) containing 0.3 mg/ml TSB powder and 1% (w/v) low EEO-agarose (Applichem). Peptide fragments were then pipetted into punched wells and allowed to diffuse for 3 hours at 37° C. After that a nutrient rich gel with 6% TSB (w/v) and 1% agarose in 10 mM sodium phosphate buffer was poured on top of the first gel. After 24 hours the inhibition zones were measured. […] All experiments were carried out at least three times.

E. coli MC1000 = assay: Transmission electron microscopy of peptide treated bacteria; type: cell-based; settings: 200 μg/ml, 2 hours
Experimental: Transmission electron microcscopy experiments were performed as previously described^11. 6×10^8 cfu E. coli MC1000 was incubated with 200 μg/ml of each peptide for 2 hours. Bacteria were fixed in Karnovsky's fixative, embedded in agarose, coagulated, cut in small blocks and fixed again in Karnovsky's solution. After post-fixation and embedding in glycid ether blocks were cut using an ultra-microtome. Sections (30 nm) were mounted on copper grids and analyzed using a Zeiss LIBRA 120 transmissions electron microscope.

pathogenic bacteria = assay: Radial diffusion assay, HD-5 fragments; type: cell-based; settings: pathogenic Gram-positive and Gram-negative bacteria (FIG. 4)
Experimental: A heat map system with high activity (inhibition zone in the RDA>5 mm), low activity (2.5 to 5 mm) and no activity (2.5 mm) was used.
as §2

CaCo2/TC7 cells = test system: CaCo2/TC7 cells
Experimental: CaCo2/TC7 (X, X) and HT29 MTX […] […] Experiments were carried out in duplicates.

C. albicans 529L = type: cell-based
human erythrocytes = assay: Hemolytic assay; type: cell-based; settings: compared to Melittin
Experimental: Hemolytic activity was measured after an existing protocol^13. We obtained blood from two voluntary donors (sample collection had been previously approved by the Ethical Committee of the University Hospital of Tübingen, Germany) and 1 ml blood was washed with PBS two times. Afterwards we centrifuged the blood at 1000 g and performed a 1% (v/v) blood suspension in PBS. The blood suspension was incubated with different peptide concentrations (final concentration 0.5%) for one hour at 37° C. Then the samples were centrifuged at 1000 g for 10 minutes and the supernatant was collected and measured at 414 nm. […] These experiments were carried out in duplicates.

P. aeruginosa 4-MRGN = type: cell-based
Experimental: as §1

K. pneumoniae DSM 30104 = type: cell-based
Experimental: as §1

E. faecium 475747 = type: cell-based
Experimental: as §1

P. aeruginosa XPAT1 = type: cell-based
Experimental: as §1

K. pneumoniae 3-MRGN = type: cell-based
Experimental: as §1

S. aureus USA300 = type: cell-based
Experimental: as §1

S. aureus ATCC 25923 = type: cell-based
Experimental: as §1

E. coli JM83 = type: cell-based
Experimental: as §1

P. aeruginosa XPAT2 = type: cell-based
Experimental: as §1

E. faecium DSM 20477 = type: cell-based
Experimental: as §1

Y. enterocolitica = type: cell-based
Experimental: as §1

A. baumannii DSM 30007 = type: cell-based
Experimental: as §1

P. aeruginosa PAO1 = type: cell-based
Experimental: as §1

E. faecalis ATCC 19433 = assay: Turbidity assay, MIC by optical density after 18 h; type: cell-based

Experimental for HT29 MTX E29 cells: CaCo2/TC7 (X, X) and HT29 MTX [MUT] (X, X) were seed in a 96 well plate in 90 μl media (1500 cells/well) and incubated at 37° C. for 24 hours. Afterwards peptide treatment with different concentrations started (volume of 10 μl solved in 0.01% acetic acid) and cells were incubated for 96 hours. Untreated and 1% Triton-X treated cells were used as controls. After the incubation we added 100 μl of CellTiter Glo2.0 solution and started our measurement protocol. The measurement was carried out in a Spark 10M (Tecan), starting with 12 minutes continuously shaking followed by the luminescence measurement with an integration time from 1 second per well. Experiments were carried out in duplicates.

CC[C@H](C)[C@@H]1NC(=O)[C@H](CCC(=O)O)NC(=O)[C@@H]2CSSC[C@@H]3NC(=O)[C@H](Cc4ccc(O)cc4)NC(=O)[C@@H](NC(=O)[C@@H](NC(=O)[C@H](C)N)[C@@H](C)O)CSSC[C@@H](C(=O)N[C@@H](CCCNC(=N)N)C(=O)O)NC(=O)[C@H](CSSC[C@H](NC(=O)[C@H](CCCNC(=N)N)NC(=O)CNC(=O)[C@H]([C@@H](C)O)NC(=O)[C@H](CCCNC(=N)N)NC3=O)C(=O)N[C@@H](C)C(=O)N[C@@H]([C@@H](C)O)C(=O)N[C@@H](CCCNC(=N)N)C(=O)N[C@@H](CCC(=O)O)C(=O)N[C@@H](CO)C(=O)N[C@@H](CC(C)C)C(=O)N[C@@H](CO)C(=O)NCC(=O)N[C@@H](C(C)C)C(=O)N2)NC(=O)[C@H](CC(C)C)NC(=O)[C@H](CCCNC(=N)N)NC(=O)[C@H](Cc2ccc(O)cc2)NC(=O)[C@H](CC(C)C)NC(=O)[C@H](CCCNC(=N)N)NC(=O)CNC(=O)[C@H](CO)NC1=O [HD-5, reference compound] (H-ATCYCRTGRCATRESLSGVCEISGRLYRLCCR-OH; disulfide 3-31, 5-20, 10-30 (inferred); N-terminus and C-terminus assumed)
susceptibility to proteolytic digestion [1]: digested by intestinal proteases | MIC (P. aeruginosa ATCC 27853; ATCC 27853, 12 h): 25 µM | MIC (P. aeruginosa ATCC 27853; P. aeruginosa ATCC 27853, after 12 hours, listed as fl): 89.7 µg/mL | MIC (A. baumannii 4-MRGN; 4-MRGN, 12 h): 6.25 µM | MIC (A. baumannii 4-MRGN; A. baumannii 4-MRGN, after 12 hours, listed as fl): 22.4 µg/mL | antimicrobial activity in radial diffusion assay (commensal bacteria): broad antimicrobial activity | phenotype of peptide treated bacteria (TEM) (E. coli MC1000): detached inner membrane and small vesicular structures around the bacteria cell envelope | antimicrobial activity in radial diffusion assay (pathogenic bacteria): strong effect on the growth of every tested bacterium

CC[C@H](C)[C@H](NC(=O)[C@H](CCC(=O)O)NC(=O)[C@H](CS)NC(=O)[C@@H](NC(=O)CNC(=O)[C@H](CO)NC(=O)[C@H](CC(C)C)NC(=O)[C@H](CO)NC(=O)[C@H](CCC(=O)O)NC(=O)[C@H](CCCNC(=N)N)NC(=O)[C@@H](NC(=O)[C@H](C)NC(=O)[C@H](CS)NC(=O)[C@H](CCCNC(=N)N)NC(=O)CNC(=O)[C@@H](NC(=O)[C@H](CCCNC(=N)N)NC(=O)[C@H](CS)NC(=O)[C@H](Cc1ccc(O)cc1)NC(=O)[C@H](CS)NC(=O)[C@@H](NC(=O)[C@H](C)N)[C@@H](C)O)[C@@H](C)O)[C@@H](C)O)C(C)C)C(=O)N[C@@H](CO)C(=O)NCC(=O)N[C@@H](CCCNC(=N)N)C(=O)N[C@@H](CC(C)C)C(=O)N[C@@H](Cc1ccc(O)cc1)C(=O)N[C@@H](CCCNC(=N)N)C(=O)O [HD-51-28] (H-ATCYCRTGRCATRESLSGVCEISGRLYR-OH; N-terminus and C-terminus assumed)
antimicrobial activity in radial diffusion assay (commensal bacteria): exhibited antimicrobial properties, albeit to a lesser extent than HD-51-9 | phenotype of peptide treated bacteria (TEM) (E. coli MC1000): bigger aggregation inside the bacteria | antimicrobial activity in radial diffusion assay (pathogenic bacteria): only minimally active or more selective in terms of different strains

CC(C)C[C@H](NC(=O)[C@H](CCCNC(=N)N)NC(=O)[C@H](CS)NC(=O)[C@H](CO)NC(=O)[C@H](CS)NC(=O)[C@@H](N)C(C)C)C(=O)N[C@H](C(=O)N[C@@H](Cc1ccccc1)C(=O)N[C@@H](CS)C(=O)N[C@@H](CCCNC(=N)N)C(=O)N[C@@H](CCCNC(=N)N)C(=O)O)C(C)C [HNP-41-11] (H-VCSCRLVFCRR-OH; N-terminus and C-terminus assumed)
cytotoxic effects (CaCo2/TC7 cells): minor cytotoxic effects | MIC (C. albicans 529L; 529L, 24 h): 100 µM | MIC (C. albicans 529L; C. albicans 529L, after 24 hours (Table 5)): 134.2 µg/mL | hemolytic activity, in words (human erythrocytes): low hemolytic activity | MIC (P. aeruginosa 4-MRGN; 4-MRGN, 12 h): 50 µM | MIC (P. aeruginosa 4-MRGN; P. aeruginosa 4-MRGN, after 12 hours): 67.1 µg/mL | MIC (K. pneumoniae DSM 30104; DSM 30104, 12 h): 25 µM | MIC (K. pneumoniae DSM 30104; K. pneumoniae DSM30104, after 12 hours): 33.5 µg/mL | MIC (E. faecium 475747; 475747, 12 h): 3.125 µM | MIC (E. faecium 475747; E. faecium 475747, after 12 hours): 4.2 µg/mL | MIC (P. aeruginosa XPAT1; P. aeruginosa XPAT1, after 12 hours): 16.8 µg/mL | MIC (P. aeruginosa XPAT1; XPAT1, 12 h): 12.5 µM | MIC (K. pneumoniae 3-MRGN; 3-MRGN, 12 h): 25 µM | MIC (K. pneumoniae 3-MRGN; K. pneumoniae 3-MRGN, after 12 hours): 33.5 µg/mL | MIC (S. aureus USA300; S. aureus USA300, after 12 hours): 67.1 µg/mL | MIC (S. aureus USA300; USA300, 12 h): 50 µM | MIC (S. aureus ATCC 25923; ATCC 25923, 12 h): 12.5 µM | MIC (S. aureus ATCC 25923; S. aureus ATCC25923, after 12 hours): 16.8 µg/mL | MIC (E. coli JM83; E. coli JM83, after 12 hours): 8.4 µg/mL | MIC (E. coli JM83; JM83, 12 h): 6.25 µM | MIC (P. aeruginosa ATCC 27853; ATCC 27853, 12 h): 12.5 µM | MIC (P. aeruginosa ATCC 27853; P. aeruginosa ATCC 27853, after 12 hours): 16.8 µg/mL | MIC (A. baumannii 4-MRGN; 4-MRGN, 12 h): 25 µM | MIC (A. baumannii 4-MRGN; A. baumannii 4-MRGN, after 12 hours): 33.5 µg/mL | MIC (P. aeruginosa XPAT2; P. aeruginosa XPAT2, after 12 hours): 16.8 µg/mL | MIC (P. aeruginosa XPAT2; XPAT2, 12 h): 12.5 µM | MIC (E. faecium DSM 20477; DSM 20477, 12 h): 12.5 µM | MIC (E. faecium DSM 20477; E. faecium DSM20477, after 12 hours): 16.8 µg/mL | MIC (Y. enterocolitica; 12 h): 12.5 µM | MIC (Y. enterocolitica; Y. enterocolitica, after 12 hours): 16.8 µg/mL | MIC (A. baumannii DSM 30007; A. baumannii DSM30007, after 12 hours): 8.4 µg/mL | MIC (A. baumannii DSM 30007; DSM 30007, 12 h): 6.25 µM | MIC (P. aeruginosa PAO1; P. aeruginosa PAO1, after 12 hours): 16.8 µg/mL | MIC (P. aeruginosa PAO1; PAO1, 12 h): 12.5 µM | cytotoxic effects compared to CaCo2/TC7 (HT29 MTX E29 cells): more susceptible

AFTCHCRRSCYSTEYSYGTCTVMGINHRFCCL [HD-6]
susceptibility to proteolytic digestion [1]: protected against proteolytic digestion

CTRATYCRG [random amino acid structure of HD51-9]
antimicrobial activity, in words (E. faecalis ATCC 19433): complete dissolving of bactericidal effects
